Experiment: Growth and carcass measurements in lambs
Format: in vivo, lambs (sheep)
Conditions: 332 mg/kg
Procedure: Three cross-bred lambs were defaunated with compound 37 at dose rate of 332 mg per kg liveweight. The lambs were allowed four weeks to adapt to defaunation before commencing the trial. The lambs were grazed at pasture. Then control (faunated) cohorts of the defaunated group, which were matched for liveweight, were grazed in the same paddock, but separated from the defaunated lambs by a double-fence (4 meter separation). This was to prevent the faunated lambs contaminating the defaunated lambs.
At 16 weeks post-defaunation both groups of the lambs were sacrificed and measurements taken.
Also shown is the cross-sectional area of the longissimus dorsi (loin eye muscle) measured between the 12th and 13th rib.

Structure (SMILES): Clc1nc(Cl)nc(Nc2ccccc2Cl)n1 [Compound 37, 2,4-dichloro-6-(2-chloroanilino)-1,3,5-triazine]
- ADG, response to defaun. (vs control, p < 0.01): 72%
- Carcass dressing out percentage, response to defaun. (vs control, p < 0.01): 16%
- Loin eye muscle area, response to defaun. (vs control, p < 0.01): 26%
- ADG (average daily gain) (defaunation): 165 g/day
- Loin eye muscle area (defaunation, 16 weeks, between 12th and 13th rib): 12.5 CM^2
- Carcass dressing out percentage (defaunation, 16 weeks, cold carcass weight as percentage of liveweight): 44.5%
